Test results published in patent US6635293B2, “Finely dispersed carotenoid suspensions for use in foods and a process for their preparation” (Kemin Foods, L.C., priority 2001, dated 2003).

Columns and labels:
[1] = Optical clarity of water containing SFAE/carotenoid composition (% transmittance at 800 nm); type: physicochemical; conditions: liquid conc. product 20% L-1695 ester
Description: (§1) Optical clarity was examined using SFAE/carotenoid liquid compositions in potable water and a model beverage system. The SFAE/carotenoid dry composition are used in a model beverage system. Liquid SFAE/carotenoid compositions were made by slowly mixing the appropriate weight percent of SFAE into the water until dissolved (Tables 2-5). At this point, the carotenoid was mixed into the SFAE/water mixture until evenly dispersed. The dry SFAE/lutein composition was prepared by removing the water from the liquid SFAE/lutein composition using a horizontal wiped film evaporator until the total moisture was less than 1%. These SFAE/carotenoid compositions were added either to potable water or to the model beverage system. The optical clarity was measured using a Hewlett Packard UV-Visible Spectrophotometer Model 8453. The instrument was blanked with water for the water trial and control beverage for the beverage trials. A quartz cuvette having a 1 cm path length is rinsed three times with the sample and then the transmittance at 800 nm is read from the spectrophotometer.

[2] = Optical clarity of model beverage system containing SFAE/carotenoid composition (% transmittance at 800 nm); type: physicochemical; conditions: liquid conc. product 20% L-1695 ester
Description: as §1

[3] = test system: age-related macular degeneration; conditions: consumption of lutein and zeaxanthin together; cited from earlier work
[4] = Stability against ringing and settling of SFAE/carotenoid compositions in model beverage system; type: physicochemical; conditions: 3 mg carotenoid/8 fl. oz. serving, 20% SFAE/1% lycopene
From the text: The objective of this experiment was to determine the stability of a sucrose fatty acid ester/carotenoid suspension in aqueous compositions. For the purposes of this discussion, stability will be defined as the resistance to produce a deposit of the carotenoid around the perimeter of the container in the region of the surface of the beverage (ringing). There are several factors that may affect the stability against ringing in aqueous compositions. It is possible that an optimal level of SFAE is required to keep the carotenoid in the suspension. The hydrophilic/lipophilic balance (HLB) of the SFAE may affect the interaction of the carotenoids with the aqueous composition. Additionally, the inclusion level of the SFAE/carotenoid suspension may determine the stability against ringing. […] These factors have been examined to determine whether there are optimal levels of SFAE and carotenoids that contribute to the stability against ringing. Stability against ringing was examined using SFAE/carotenoid liquid compositions in potable water and a model beverage system. The SFAE/carotenoid dry composition was used in a model beverage system. Liquid SFAE/carotenoid compositions were made by slowly mixing the appropriate weight percent of SFAE into the water until dissolved (Table 6). At this point the carotenoid was mixed into the SFAE/water mixture until evenly dispersed. […]

[5] = 0.5 mg carotenoid/8 oz serving, 5% carotenoid
[6] = 1.5 mg carotenoid/8 oz serving, 5% carotenoid
[7] = 3.0 mg carotenoid/8 oz serving, 5% carotenoid
[8] = 0.5 mg carotenoid/8 oz serving, 1% carotenoid
[9] = 3.0 mg carotenoid/8 oz serving, 1% carotenoid

Row | Compound | Optical Clarity [1, 5] [% transmittance at 800 nm] | Optical Clarity [1, 6] [% transmittance at 800 nm] | Optical Clarity [1, 7] [% transmittance at 800 nm] | Optical Clarity [2, 5] [% transmittance at 800 nm] | Optical Clarity [2, 7] [% transmittance at 800 nm] | reduction in age-related macular degeneration [3] [%] | Optical Clarity [1, 8] [% transmittance at 800 nm] | Optical Clarity ([1]; 1.5 mg carotenoid/8 oz serving, 1% carotenoid) [% transmittance at 800 nm] | Optical Clarity [1, 9] [% transmittance at 800 nm] | Optical Clarity [2, 8] [% transmittance at 800 nm] | Optical Clarity [2, 9] [% transmittance at 800 nm] | settling (in words) [4]
1 | CC1=C[C@H](O)CC(C)(C)[C@H]1/C=C/C(C)=C/C=C/C(C)=C/C=C/C=C(C)/C=C/C=C(C)/C=C/C1=C(C)C[C@@H](O)CC1(C)C [lutein, Lutein] | 104.73 | 101.01 | 93.735 | 97.609 | 83.017 | 57 |  |  |  |  |  | 
2 | CC(C)=CCC/C(C)=C/C=C/C(C)=C/C=C/C(C)=C/C=C/C=C(C)/C=C/C=C(C)/C=C/C=C(\C)CCC=C(C)C [lycopene, Lycopene] |  |  |  |  |  |  | 97.989 | 88.387 | 72.401 | 94.934 | 50.180 | considerable amount of settling
3 | CC1=C(/C=C/C(C)=C/C=C/C(C)=C/C=C/C=C(C)/C=C/C=C(C)/C=C/C2=C(C)C[C@@H](O)CC2(C)C)C(C)(C)C[C@H](O)C1 [zeaxanthin, Zeaxanthin] | 98.213 | 95.692 | 94.110 | 99.102 | 87.707 | 57 |  |  |  |  |  | 
4 | CC1=C(/C=C/C(C)=C/C=C/C(C)=C/C=C/C=C(C)/C=C/C=C(C)/C=C/C2=C(C)CCCC2(C)C)C(C)(C)CCC1 [β-carotene, β-Carotene] | 96.759 | 94.275 | 87.407 | 99.314 | 89.643 |  |  |  |  |  |  | 
